Like-named read-outs stand apart in the source and are kept apart here.
Assay: Test 2: blood pressure depression up to 24 hours and duration until 50% recovery, oral
Assay type: in vivo, Male, spontaneously hypertension-developing rats
Details: for response vs control in vivo at 25 mg/kg: Rattus norvegicus, percent based on that before administration (100); for Duration 50% recovery: duration until pressure recovered to 50% from the maximum depression value
Protocol: Male, spontaneously hypertension-developing rats of ages of 10 to 11 weeks (in groups of 3 to 5 animals) were used in the test. For blood pressure determination, systolic pressure was measured without anesthesia by an indirect tail-cuff method using a sphygmomanometer (PE-300, Narco Bio-System).

[1] = 1h after oral administration, read-out: Depression value (%) of blood pressure, 1h
[2] = 2h after oral administration, read-out: Depression value (%) of blood pressure, 2h
[3] = 4h after oral administration, read-out: Depression value (%) of blood pressure, 4h
[4] = 7h after oral administration, read-out: Depression value (%) of blood pressure, 7h
[5] = 24h after oral administration, read-out: Depression value (%) of blood pressure, 24h
[6] = maximum lowering, read-out: Depression value (%) of blood pressure, Max

SMILES	response vs control in vivo at 25 mg/kg [1] [%]	response vs control in vivo at 25 mg/kg [2] [%]	response vs control in vivo at 25 mg/kg [3] [%]	response vs control in vivo at 25 mg/kg [4] [%]	response vs control in vivo at 25 mg/kg [5] [%]	response vs control in vivo at 25 mg/kg [6] [%]	Duration 50% recovery [h]
COC(=O)C1=C(C)NC(C)=C(C(=O)OCCN(C)Cc2ccccc2)C1c1ncccc1[N+](=O)[O-] (stereo not drawn) [(1), 2,6-Dimethyl-4-(3-nitro-2-pyridyl)-1,4-dihydropyridine-3,5-dicarboxylicacid 3-β-(N-benzyl-N-methylamino)ethyl ester 5-methyl ester]	65	68	76	81	96	65	8.7
COC(=O)C1=C(C)NC(C)=C(C(=O)OCCN(C)Cc2ccccc2)C1c1cc(Br)ccn1 (stereo not drawn) [(2), 2,6-Dimethyl-4-(4-bromo-2-pyridyl)-1,4-dihydropyridine-3,5-dicarboxylicacid 3-β-(N-benzyl-N-methylamino)ethyl ester 5-methyl ester]	70	76	75	92	102	70	5.8
COC(=O)C1=C(C)NC(C)=C(C(=O)OCCN(C)Cc2ccccc2)C1c1cc(C#N)ccn1 (stereo not drawn) [(3), 2,6-Dimethyl-4-(4-cyano-2-pyridyl)-1,4-dihydropyridyne-3,5-dicarboxylicacid 3-β-(N-benzyl-N-methylamino)ethyl ester 5-methyl ester]	61	66	74	82	95	61	7.0
COC(=O)C1=C(C)NC(C)=C(C(=O)OCCN(C)Cc2ccccc2)C1c1cccc(Cl)n1 (stereo not drawn) [(7), 2,6-Dimethyl-4-(6-chloro-2-pyridyl)-1,4-dihydropyridine-3,5-dicarboxylic a cid 3-β-(N-benzyl-N-methylamino)ethyl ester 5-methyl ester]	83	84	87	93	101	83	6.0
COC(=O)C1=C(C)NC(C)=C(C(=O)OCCN(C)Cc2ccccc2)C1c1cccc(C(F)(F)F)n1 (stereo not drawn) [(9), 2,6-Dimethyl-4-(6-trifluoromethyl-2-pyridyl)-1,4-dihydropyridine-3,5-dicarboxylic acid 3-β-(N-benzyl-N-methylamino)ethyl ester 5-methyl ester]	85	92	91	104	119	85	4.6
COC(=O)C1=C(C)NC(C)=C(C(=O)OCCN(C)Cc2ccccc2)C1c1cccc([N+](=O)[O-])n1 (stereo not drawn) [(10), 2,6-Dimethyl-4-(6-nitro-2-pyridyl)-1,4-dihydropyridine-3,5-dicarboxylic ac id 3-β-(N-benzyl-N-methylamino)ethyl ester 5-methyl ester]	99	95	107	110	120	95	2.4
COC(=O)C1=C(C)NC(C)=C(C(=O)OCCN(C)Cc2ccccc2)C1c1cccnc1Br (stereo not shown) [(11)]	83	82	87	91	97	82	6.7
COC(=O)C1=C(C)NC(C)=C(C(=O)OCCN(C)Cc2ccccc2)C1c1cccnc1C#N (stereo not drawn) [(12), 2,6-Dimethyl-4-(2-cyano-3-pyridyl)-1,4-dihydropyridine-3,5-dicarboxylic ac id 3-β-(N-benzyl-N-methylamino)ethyl ester 5-methyl ester]	66	71	76	88	98	66	5.6
COC(=O)C1=C(C)NC(C)=C(C(=O)OCCN(C)Cc2ccccc2)C1c1cccnc1C(F)(F)F (stereo not drawn) [(13), 2,6-Dimethyl-4-(2-trifluoromethyl-3-pyridyl)-1,4-dihydropyridine-3,5-dicarboxylic acid 3-β-(benzyl-N-methylamino)ethyl ester 5-methyl ester]	73	67	67	71	94	67	16.2
COC(=O)C1=C(C)NC(C)=C(C(=O)OCCN(C)Cc2ccccc2)C1c1cncc(Br)c1 (stereo not drawn) [(14), 2,6-Dimethyl-4-(5-bromo-3-pyridyl)-1,4-dihydropyridine-3,5-dicarboxylic ac id 3-β-(N-benzyl-N-methylamino)ethyl ester 5-methyl ester]	83	91	90	90	101	83	9.3
COC(=O)C1=C(C)NC(C)=C(C(=O)OCCN(C)Cc2ccccc2)C1c1ccc(C#N)nc1 (stereo not drawn) [(15), 2,6-Dimethyl-4-(6-cyano-3-pyridyl)-1,4-dihydropyridine-3,5-dicarboxylic ac id 3-β-(N-benzyl-N-methylamino)ethyl ester 5-methyl ester]	88	90	83	89	95	83	15.1
COC(=O)C1=C(C)NC(C)=C(C(=O)OCCN(C)Cc2ccccc2)C1c1ccnc(F)c1 (stereo not drawn) [(16), 2,6-Dimethyl-4-(2-fluoro-4-pyridyl)-1,4-dihydropyridine-3,5-dicarboxylic acid 3-β-(N-benzyl-N-methylamino)ethyl ester 5-methyl ester]	92	94	95	98	96	92	5.5
COC(=O)C1=C(C)NC(C)=C(C(=O)OCCN(C)Cc2ccccc2)C1c1cncc(C(F)(F)F)c1 (stereo not drawn) [(17), 2,6-Dimethyl-4-(5-trifluoromethyl-3-pyridyl)-1,4-dihydropyridine-3,5-dicarboxylic acid 3-β-(N-benzyl-N-methylamino)ethyl ester 5-methyl ester]	91	92	95	98	105	91	4.2
COC(=O)C1=C(C)NC(C)=C(C(=O)OCCN(C)Cc2ccccc2)C1c1cncc([N+](=O)[O-])c1 (stereo not drawn) [(18), 2,6-Dimethyl-4-(5-nitro-3-pyridyl)-1,4-dihydropyridine-3,5-dicarboxylic ac id 3-β-(N-benzyl-N-methylamino)ethyl ester 5-methyl ester]	90	86	95	96	96	86	3.7
COC(=O)C1=C(C)NC(C)=C(C(=O)OCCN(C)Cc2ccccc2)C1c1ccnc(C#N)c1 (stereo not drawn) [(19), 2,6-Dimethyl-4-(2-cyano-4-pyridyl)-1,4-dihydropyridine-3,5-dicarboxylic ac id 3-β-(N-benzyl-N-methylamino)ethyl ester 5-methyl ester]	75	94	100	98	99	75	1.7
COC(=O)C1=C(C)NC(C)=C(C(=O)OCCN(C)Cc2ccccc2)C1c1cccc([N+](=O)[O-])c1 (stereo not drawn) [Nic, 2,6-dimethyl-4-(3-nitrophenyl)-1,4-dihydropyridine-3,5-dicarboxylic acid 3-β-(N-benzyl-N-methylamino)ethyl ester 5-methyl ester, reference compound]	62	68	76	81	96	62	7.0

— US4849429A, “Certain 1,4-dihydro-2,6-dilower-alkyl-4-(mono-substituted pyridyl) useful for treating coronary artery or cerebral artery disease” (The Green Cross Corporation, priority 1985, dated 1989)
